Measurements taken from paper PMC5362899, “Structural insights into the nucleotide base specificity of P2X receptors” (Scientific Reports, 2017).

Molecular target: T1, rat P2X4 rT186V mutant (Rattus norvegicus, UniProt P51577, T186V)
T1 construct: rat P2X4 (NP_113782.1; WT and mutants) were transcribed from pGEMHE plasmids; expressed in transfected cells; host or cells: Xenopus laevis oocytes injected with cRNA from pGEMHE
T1 sequence (P51577 1-388 T186V): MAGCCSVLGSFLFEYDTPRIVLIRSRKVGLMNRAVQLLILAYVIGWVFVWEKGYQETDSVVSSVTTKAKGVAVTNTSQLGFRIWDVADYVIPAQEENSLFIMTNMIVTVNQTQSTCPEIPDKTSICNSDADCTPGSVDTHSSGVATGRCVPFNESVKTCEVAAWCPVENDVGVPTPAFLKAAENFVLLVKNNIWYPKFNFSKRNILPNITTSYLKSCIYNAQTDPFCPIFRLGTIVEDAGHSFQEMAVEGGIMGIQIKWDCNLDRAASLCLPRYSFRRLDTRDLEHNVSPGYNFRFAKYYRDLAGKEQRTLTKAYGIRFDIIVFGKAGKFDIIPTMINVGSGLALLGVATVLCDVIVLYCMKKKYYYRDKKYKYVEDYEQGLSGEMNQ
Assay: Two-Electrode Voltage Clamp recording, rat P2X4 T186V mutant in Xenopus oocytes
Format: cell-based
Conditions: 3 mM ATP, 3 mM CTP (Fig. S3)
From the text: To further investigate the functional roles of the residues involved in the base recognition, T189 and R143, we performed an electrophysiological analysis with the rat P2X4, since its electrophysiological properties have been well established. We first assessed the functional role of T189 in zfP2X4 and introduced mutations at the equivalent residue of the rat P2X4 to create three mutants (^rT186A, ^rT186V and ^rT186S; the superscript “r” means rat P2X4). […] Therefore, we examined the ^rWT and the ^rT186S mutant.
The cRNAs encoding zebrafish P2X4 (NP_705939; WT) and rat P2X4 (NP_113782.1; WT and mutants) were transcribed from pGEMHE plasmids, using a mMessage mMachine® T7 ULTRA kit (Ambion, Huntingdon, Cambridgeshire, UK). Xenopus laevis oocytes were prepared, and RNA (100 ng for zebrafish P2X4, and 20 ng for rat P2X4) was injected into the oocytes. The oocytes were incubated at 18 °C in Barth’s solution, containing 88 mM NaCl, 1 mM KCl, 2.4 mM NaHCO3, 10 mM HEPES, 0.33 mM Ca(NO3)2, 0.41 mM CaCl2, and 0.82 mM MgSO4, pH 7.4, supplemented with 50 μg/ml gentamicin, and were used for recording after 2–3 days. […] Oocytes were held at −70 mV with a bath-clamp amplifier (OC-725C, Warner Co., USA), and macroscopic currents were recorded and analyzed using the pClamp 10 software (Molecular Devices, USA)[33][34]. We measured n = 4 for zebrafish P2X4 data and n = 7–9 for rat P2X4 data. […]

Row | SMILES | nucleotide-evoked currents
1 | Nc1ccn([C@@H]2O[C@H](COP(=O)(O)OP(=O)(O)OP(=O)(O)O)[C@@H](O)[C@H]2O)c(=O)n1 [CTP] | no ATP- and CTP-evoked currents were detected
2 | Nc1ncnc2c1ncn2[C@@H]1O[C@H](COP(=O)(O)OP(=O)(O)OP(=O)(O)O)[C@@H](O)[C@H]1O [ATP, Adenosine 5-triphosphate] | no ATP- and CTP-evoked currents were detected
